From ChEMBL document CHEMBL4251572, “Novel aminopyrimidinyl benzimidazoles as potentially antimicrobial agents: Design, synthesis and biological evaluation” (Eur J Med Chem, 2018)
In brackets after ≈: the same amount, converted by molar mass. Activity calls are given as the source filed them. The calls are words filed in the database; no cut-off is given here.

Experiments:
L02 = assay: Cytotoxicity against human LO2 cells at 100 to 500 ug/ml after 48 hrs by MTT assay; format: cell-based; settings: l02, 48 h
Albumin [1] = target: T1, Albumin (Homo sapiens, UniProt P02768); assay: Binding affinity to HSA assessed as Stern-Volmer quenching constant at pH 7.4 at 298 K by fluorescence spectroscopic analysis; format: ADME; settings: isolated protein
T1 sequence (P02768 whole entry): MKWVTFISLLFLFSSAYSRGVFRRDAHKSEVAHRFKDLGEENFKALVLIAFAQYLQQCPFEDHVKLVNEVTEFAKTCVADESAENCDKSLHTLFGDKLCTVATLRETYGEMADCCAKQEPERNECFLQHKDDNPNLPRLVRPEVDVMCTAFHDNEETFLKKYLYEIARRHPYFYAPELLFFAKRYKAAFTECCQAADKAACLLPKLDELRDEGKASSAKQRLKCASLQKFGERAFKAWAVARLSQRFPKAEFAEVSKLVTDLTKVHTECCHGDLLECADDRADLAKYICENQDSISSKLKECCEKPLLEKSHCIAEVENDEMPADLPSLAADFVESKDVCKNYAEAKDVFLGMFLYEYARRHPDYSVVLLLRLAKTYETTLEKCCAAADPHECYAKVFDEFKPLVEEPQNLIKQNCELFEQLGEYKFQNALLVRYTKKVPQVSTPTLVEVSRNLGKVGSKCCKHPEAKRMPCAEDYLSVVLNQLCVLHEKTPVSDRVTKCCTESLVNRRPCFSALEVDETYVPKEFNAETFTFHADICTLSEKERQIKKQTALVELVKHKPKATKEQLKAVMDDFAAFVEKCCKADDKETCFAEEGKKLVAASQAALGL

Bacillus subtilis = assay: Antibacterial activity against Bacillus subtilis after 24 hrs by micro broth dilution assay; format: functional
Calf thymus DNA [2] = assay: Binding affinity to calf thymus DNA by UV-vis absorption spectra analysis; format: nucleic-acid assay; settings: Bos taurus
Calf thymus DNA [3] = assay: Competitive binding affinity to calf thymus DNA assessed as reduction in DNA_AO complex fluorescence intensity by acridine orange staining-based assay; format: nucleic-acid assay; settings: Bos taurus
Staphylococcus aureus [4] = assay: Antibacterial activity against methicillin-resistant Staphylococcus aureus N315 incubated for 24 hrs followed by plating onto tryptic soy agar medium and measured after 24 hrs; format: functional; settings: N315, 24 h
Staphylococcus aureus [5] = assay: Antibacterial activity against methicillin-resistant Staphylococcus aureus N315 after 24 hrs by micro broth dilution assay; format: functional; settings: N315, 24 h
Staphylococcus aureus [6] = assay: Ratio of MBC for Staphylococcus aureus ATCC 25923 to MIC for Staphylococcus aureus ATCC 25923; format: functional
Bacillus = assay: Antibacterial activity against Bacillus proteus ATCC 13315 after 24 hrs by micro broth dilution assay; format: functional; settings: ATCC 13315, 24 h
Escherichia coli [7] = assay: Antibacterial activity against Escherichia coli DH52 after 24 hrs by micro broth dilution assay; format: functional; settings: DH52, 24 h
Pseudomonas aeruginosa [8] = assay: Antibacterial activity against Pseudomonas aeruginosa incubated for 24 hrs followed by plating onto tryptic soy agar medium and measured after 24 hrs; format: functional
Candida albicans = assay: Antifungal against Candida albicans ATCC 76615 after 24 hrs by two fold serial dilution method; format: functional; settings: ATCC 76615, 24 h
Pseudomonas aeruginosa [9] = assay: Antibacterial activity against Pseudomonas aeruginosa after 24 hrs by micro broth dilution assay; format: functional
Albumin [10] = target: T1, Albumin; assay: Binding affinity to HSA at 0.2 to 1 10'5 mol/L by synchronous fluorescence […]; format: ADME; settings: isolated protein
Pichia norvegensis = assay: Antifungal against Candida mycoderma after 24 hrs by two fold serial dilution method; format: functional
Calf thymus DNA [11] = assay: Binding affinity to calf thymus DNA assessed as Stern-Volmer quenching constant at 2 x 10^-5 mol/L at pH 7.4 at 298 K in presence of potassium iodide by fluorescence assay (reference value: 46.23 L/mol); format: nucleic-acid assay; settings: Bos taurus
Albumin [12] = target: T1, Albumin; assay: Binding affinity to HSA assessed as Stern-Volmer quenching constant at pH 7.4 at 303 K by fluorescence spectroscopic analysis; format: ADME; settings: isolated protein
Salmonella typhi = assay: Antibacterial activity against Bacillus typhi after 24 hrs by micro broth dilution assay; format: functional, Salmonella enterica subsp. enterica serovar Typhi; settings: Salmonella enterica
Staphylococcus aureus [13] = assay: Antibacterial activity against methicillin-resistant Staphylococcus aureus N315 after 16 serial passages by two-fold serial dilution assay; format: functional, organism-based
Cyberlindnera jadinii = assay: Antifungal against Candida utilis after 24 hrs by two fold serial dilution method; format: functional; settings: Williopsis jadinii
Escherichia coli [14] = assay: Antibacterial activity against Escherichia coli JM109 after 24 hrs by micro broth dilution assay; format: functional; settings: JM109, 24 h
Staphylococcus aureus [15] = assay: Antibacterial activity against Staphylococcus aureus ATCC 25923 incubated for 24 hrs followed by plating onto tryptic soy agar medium and measured after 24 hrs; format: functional; settings: ATCC 25923, 24 h
Pseudomonas aeruginosa [16] = assay: Ratio of MBC for Pseudomonas aeruginosa to MIC for Pseudomonas aeruginosa; format: functional
Staphylococcus aureus [17] = assay: Antibacterial activity against Staphylococcus aureus ATCC 25923 after 24 hrs by micro broth dilution assay; format: functional; settings: ATCC 25923, 24 h
Shigella dysenteriae = assay: Antibacterial activity against Shigella dysenteriae after 24 hrs by micro broth dilution assay; format: functional
Calf thymus DNA [18] = assay: Binding affinity to calf thymus DNA assessed as hypochromic effect by UV-vis absorption spectra analysis; format: nucleic-acid assay; settings: Bos taurus
HepG2 = assay: Induction of ROS generation in human HepG2 cells at 6.25 to 50 uM by DCFH-DA staining based fluorescence microscopic analysis; format: cell-based; settings: hepg2, 50 µM
Albumin [19] = target: T1, Albumin; assay: Binding affinity to HSA assessed as increase in absorption intensity by UV-vis absorption spectra analysis; format: ADME; settings: isolated protein
Albumin [20] = target: T1, Albumin; assay: Binding affinity to HSA assessed as Stern-Volmer quenching constant at pH 7.4 at 284 K by fluorescence spectroscopic analysis; format: ADME; settings: isolated protein
Micrococcus luteus = assay: Antibacterial activity against Micrococcus luteus ATCC4698 after 24 hrs by micro broth dilution assay; format: functional; settings: ATCC4698, 24 h
Saccharomyces cerevisiae = assay: Antifungal against Saccharomyces cerevisiae after 24 hrs by two fold serial dilution method; format: functional
Aspergillus flavus = assay: Antifungal against Aspergillus flavus after 24 hrs by two fold serial dilution method; format: functional

Q: How did the Activity (L02) turn out when `Cc1ccc(-c2cc(-c3nc4ccccc4[nH]3)nc(N)n2)cc1` was run?
A: Its Activity is “Non-Toxic”.

Q: What about the KSV (Albumin [1]) of the same compound?
A: Its KSV is 1.9 ×10⁵ L/mol.

Q: And the MIC (Bacillus subtilis)?
A: The MIC was 8 µg/mL (≈ 26.5 µM).

Q: And the K (Calf thymus DNA [2])?
A: The K was 1.54 ×10⁴ L/mol.

Q: What about the Activity (Calf thymus DNA [3]) of the same compound?
A: Its Activity is “Dose-dependent effect”.

Q: What about the MBC (Staphylococcus aureus [4]) of the same compound?
A: The MBC was 8 µg/mL (≈ 26.5 µM).

Q: What about the MIC (Staphylococcus aureus [5]) of the same compound?
A: The MIC was 8 µg/mL (≈ 26.5 µM).

Q: And the Ratio (Staphylococcus aureus [6])?
A: The Ratio was 1.

Q: What about the MIC (Bacillus) of the same compound?
A: Its MIC is 4 µg/mL (≈ 13.3 µM).

Q: What about the MIC (Escherichia coli [7]) of the same compound?
A: Its MIC is 1 µg/mL (≈ 3.32 µM).

Q: And the MBC (Pseudomonas aeruginosa [8])?
A: The MBC was 8 µg/mL (≈ 26.5 µM).

Q: What about the MIC (Candida albicans) of the same compound?
A: The MIC was 8 µg/mL (≈ 26.5 µM).

Q: What about the MIC (Pseudomonas aeruginosa [9]) of the same compound?
A: The MIC was 4 µg/mL (≈ 13.3 µM).

Q: And the Activity (Albumin [10])?
A: The Activity was “Active”.

Q: What about the MIC (Pichia norvegensis) of the same compound?
A: The MIC was 4 µg/mL (≈ 13.3 µM).

Q: And the KSV (Calf thymus DNA [11])?
A: Its KSV is 39.9 L/mol.

Q: What about the KSV (Albumin [12]) of the same compound?
A: Its KSV is 1.73 ×10⁵ L/mol.

Q: What about the MIC (Salmonella typhi) of the same compound?
A: Its MIC is 2 µg/mL (≈ 6.64 µM).

Q: And the Activity (Staphylococcus aureus [13])?
A: The Activity was “Active”.

Q: And the MIC (Cyberlindnera jadinii)?
A: Its MIC is 4 µg/mL (≈ 13.3 µM).

Q: What about the MIC (Escherichia coli [14]) of the same compound?
A: Its MIC is 2 µg/mL (≈ 6.64 µM).

Q: What about the MBC (Staphylococcus aureus [15]) of the same compound?
A: The MBC was 8 µg/mL (≈ 26.5 µM).

Q: What about the Ratio (Pseudomonas aeruginosa [16]) of the same compound?
A: The Ratio was 2.

Q: What about the MIC (Staphylococcus aureus [17]) of the same compound?
A: Its MIC is 8 µg/mL (≈ 26.5 µM).

Q: And the MIC (Shigella dysenteriae)?
A: The MIC was 16 µg/mL (≈ 53.1 µM).

Q: What about the Activity (Calf thymus DNA [18]) of the same compound?
A: The Activity was “Active”.

Q: What about the Activity (HepG2) of the same compound?
A: The Activity was “Non-Toxic”.

Q: And the Activity (Albumin [19])?
A: The Activity was “Active”.

Q: And the KSV (Albumin [20])?
A: Its KSV is 1.96 ×10⁵ L/mol.

Q: What about the MIC (Micrococcus luteus) of the same compound?
A: The MIC was 8 µg/mL (≈ 26.5 µM).

Q: And the MIC (Saccharomyces cerevisiae)?
A: Its MIC is 4 µg/mL (≈ 13.3 µM).

Q: What about the MIC (Aspergillus flavus) of the same compound?
A: The MIC was 1 µg/mL (≈ 3.32 µM).
